Experimental data from patent US12668584B2, “Heterocyclic compounds as kinase inhibitors for therapeutic uses” (National Health Research Institutes, priority 2019, dated 2026).

Assays:
[1] = target: T1, CSF1R kinase (recombinant N-terminal GST-CSF1R, residues L534-C972) (Homo sapiens, UniProt P07333); assay: CSF1R Kinase-Glo assay; format: biochemical; conditions: 40 μM ATP, 30° C. 180 min, read-out: Enzymatic Assay CSF1R enzyme IC50
T1 construct: Recombinant N-terminal GST-CSF1R (CSF1R residues L534-C972) containing the CSFIR kinase domain; made in house; host or cells: Sf9 insect cells
T1 sequence (P07333 534-972): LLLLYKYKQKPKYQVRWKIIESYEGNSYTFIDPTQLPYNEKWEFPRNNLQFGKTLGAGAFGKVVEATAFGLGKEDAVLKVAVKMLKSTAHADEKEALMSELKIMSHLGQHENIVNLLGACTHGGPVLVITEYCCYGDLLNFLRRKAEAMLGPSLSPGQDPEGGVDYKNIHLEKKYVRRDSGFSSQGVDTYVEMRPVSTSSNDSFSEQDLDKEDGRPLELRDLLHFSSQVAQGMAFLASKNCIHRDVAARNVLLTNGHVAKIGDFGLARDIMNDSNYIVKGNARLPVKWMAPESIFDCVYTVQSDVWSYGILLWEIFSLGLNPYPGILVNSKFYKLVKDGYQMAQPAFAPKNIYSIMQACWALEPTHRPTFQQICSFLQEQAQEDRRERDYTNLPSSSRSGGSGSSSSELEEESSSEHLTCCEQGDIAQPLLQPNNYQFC
Description: A study was conducted to test certain compounds described in EXAMPLE 1 in inhibiting CSF1R kinase activity.
Activity of CSF1R kinase was determined using a CSF1R Kinase-Glo assay. Recombinant N-terminal GST-CSF1R (CSF1R residues L534-C972) containing the CSFIR kinase domain was expressed in Sf9 insect cells and purified. The kinase assay was carried out in 96-well plates at 30° C. for 180 min with the tested compounds in a final volume of 50 μl including the following components: 25 mM Tris-HCl pH 7.4, 4 mM MnCl2, 10 mM MgCl2, 0.01% BSA, 0.5 mM NA3VO4, 0.02% Triton X-100, 40 μM ATP, 2 mM DTT and 20 μM poly(Glu,Tyr) 4:1 peptide, and 600 ng recombinant GST-CSF1R. Following incubation, 50 μl Kinase-Glo Plus Reagent (Promega, Madison, WI, USA) was added and the mixture was incubated at 25° C. for 20 min. A 70-μL aliquot of each reaction mixture was transferred to a black microtiter plate and luminescence was measured on Wallac Vector 1420 multilabel counter (PerkinElmer, Shelton, CT, USA). Percentage inhibition values were obtained by comparison of reaction rate with the rates in control wells (i.e., in the absence of test compound). IC50 values were calculated from a series of percentage inhibition values determined at a range of test compound concentrations using GraphPad Prism version 6 software (GraphPad, San Diego, CA, USA).

M-NFS-60 cells = assay: MTS cell viability assay, M-NFS-60; format: cell-based; conditions: 72 h, read-out: Cellular Proliferation Assay M-NFS-60 (nM) GI50
Description: (§1) Studies were conducted to evaluate […] anticancer activity of certain compounds described in EXAMPLE 1 using 3-(4,5-dimethylthiazol-2-yl)-5-(3-carboxymethoxyphenyl)-2-(4-sulfophenyl)-2H-tetrazolium) (MTS) cell viability assays. Results from these studies are shown in Table 2 below (see columns 3 and 4).
(§2) The cell lines M-NFS-60 (ATCC® CRL-1838™) and BaF3-CSF1R-1600 were obtained from American Type Culture Collection (ATCC, Manassas, VA, USA). The stable BaF3-CSF1R-1600 cell line expresses ETV6-CSF1R fusion protein consisting of N-terminal ETS-variant gene 6 protein (ETV6 residues M1-G337) and CSF1R tyrosine kinase (CSF1R residues L533-C972). The M-NSF-60 and BaF3-CSF1R-1600 cells were cultured in RPMI1640 medium supplemented with 10% fetal bovine serum, 0.05 mM 2-ME, 10 U/ml penicillin, and 10 µg/ml streptomycin at 37° C. and 5% CO2.
(§3) M-NFS-60 and BaF3-CSF1R-1600 cells were seeded in 96-well plates at a density of 10000 cells/100 μl and 8000 cells/100 μl per well, respectively, for 16 h and treated with vehicle or various concentrations of test compounds in medium for 72 h. Viable cells were quantified using the MTS method (Promega, Madison, WI, USA) according to manufacturer's recommended protocol. The results were determined by measuring absorbance at 490 nm using a plate reader (Victor 2). The GI50 value was defined as the amount of compound that caused 50% reduction in cell viability in comparison with DMSO-treated (vehicle) control and was calculated using Prism GraphPad Prism version 6 software (GraphPad).

[2] = tested on: BaF3-CSF1R-1600 cells (express ETV6-CSF1R fusion protein); assay: MTS cell viability assay, BaF3-CSF1R-1600; format: cell-based; conditions: 72 h, read-out: Cellular Proliferation Assay BaF3-CSF1R GI50
Description: as §1, §2, §3

Row | SMILES | IC50 [1] [µM] | GI50 (M-NFS-60 cells) [nM] | GI50 [2] [µM]
1 | COc1ccc(Cl)cc1NC(=O)Nc1ccc(Oc2ncnc3cc(N(C)C)ccc23)cc1 [Compound 104] | 0.02 to 0.1 | 100 to 1000 | 0.02 to 0.1
2 | COc1ccc(NC(=O)Nc2ccc(Oc3ncnc4cc(N(C)C)ccc34)cc2)cc1 [Compound 21] | < 0.02 | 20 to 100 | 0.02 to 0.1
3 | CN1CCN(c2ccc3c(Oc4ccc(NC(=O)NCc5ccc(C(F)(F)F)nc5)cc4)ncnc3c2)CC1 [Compound 28] | 0.02 to 0.1 | 20 to 100 | < 0.02
4 | COc1ccc(NC(=O)Nc2ccc(Oc3ncnc4cc(N(C)C)ccc34)cc2)cc1Cl [Compound 105] | 0.02 to 0.1 | 20 to 100 | 0.02 to 0.1
5 | CN(C)CCN(C)c1ccc2c(Oc3ccc(NC(=O)NCc4ccc(C(F)(F)F)nc4)cc3)ncnc2c1 [Compound 44] | < 0.02 | 100 to 1000 | 0.02 to 0.1
6 | CN(C)c1ccc2c(Oc3ccc4c(cnn4C(=O)NCc4ccc(C(F)(F)F)nc4)c3)ncnc2c1 [Compound 68] | 0.02 to 0.1 | 100 to 1000 | 0.02 to 0.1
7 | COC1CCN(c2ccc3c(Oc4ccc(NC(=O)Nc5cccc(Cl)c5)cc4)ncnc3c2)CC1 [Compound 17] | < 0.02 | 20 to 100 | 0.02 to 0.1
8 | O=C(NCc1ccc(C(F)(F)F)nc1)Nc1ccc(Oc2ncnc3cc(N4CCC(O)CC4)ccc23)cc1 [Compound 30, 1-(4-((7-(4-hydroxypiperidin-1-yl)quinazolin-4-yl)oxy)phenyl)-3-((6-(trifluoromethyl)pyridin-3-yl)methyl)urea] | < 0.02 | 20 to 100 | 0.02 to 0.1
9 | CN(C)c1ccc2c(Oc3ccc(NC(=O)NCc4ccc(S(N)(=O)=O)cc4)cc3)ncnc2c1 [Compound 49] | < 0.02 | > 1000 | 0.1 to 1
10 | CN(CCCN1CCOCC1)c1ccc2c(Oc3ccc(NC(=O)NCc4ccc(C(F)(F)F)nc4)cc3)ncnc2c1 [Compound 45] | < 0.02 | 100 to 1000 | 0.02 to 0.1
11 | C[C@@H]1CN(c2ccc3c(Oc4ccc(NC(=O)NCc5ccc(C(F)(F)F)nc5)cc4)ncnc3c2)C[C@H](C)N1C [Compound 97] | 0.02 to 0.1 | 20 to 100 | 0.02 to 0.1
12 | CN(C)c1ccc2c(Oc3ccc(NC(=O)Nc4cccc(Cl)c4)cc3)ncnc2c1 [Compound 16] | < 0.02 | 20 to 100 | 0.02 to 0.1
13 | O=C(NCc1ccc(C(F)(F)F)nc1)Nc1ccc(Oc2ncnc3cc(N[C@@H]4CCCC[C@H]4O)ccc23)cc1 [Compound 43] | 0.02 to 0.1 | 100 to 1000 | 0.1 to 1
14 | O=C(NCc1ccc(C(F)(F)F)nc1)Nc1ccc(Oc2ncnc3cc(N4CCN(C5COC5)CC4)ccc23)cc1 [Compound 98] | < 0.02 | 20 to 100 | < 0.02
15 | O=C(Nc1ccccc1)Nc1ccc(Oc2ncnc3cc(N4CCCC4)ccc23)cc1 [Compound 9] | 0.02 to 0.1 | 20 to 100 | 0.02 to 0.1
16 | CN(C)c1ccc2c(Oc3ccc(NC(=O)NCc4ccco4)cc3)ncnc2c1 [Compound 63] | 0.02 to 0.1 | 100 to 1000 | 0.1 to 1
17 | CN(C)c1ccc2c(Oc3ccc(NC(=O)NCc4ccc(OC(F)(F)F)cc4)cc3)ncnc2c1 [Compound 57] | < 0.02 | 100 to 1000 | 0.1 to 1
18 | COC1CCN(c2ccc3c(Oc4ccc(NC(=O)NCc5ccc(C(F)(F)F)nc5)cc4)ncnc3c2)CC1 [Compound 24] | < 0.02 | 20 to 100 | 0.02 to 0.1

Row | SMILES | IC50 [1] [µM] | GI50 (M-NFS-60 cells) [nM] | GI50 [2] [µM]
19 | CN(C)c1ccc2c(Oc3ccc(NC(=O)Nc4ccccc4)cc3)ncnc2c1 [Compound 4, 1-(4-((7-(dimethylamino)quinazolin-4-yl)oxy)phenyl)-3-phenylurea] | 0.02 to 0.1 | 20 to 100 | 0.02 to 0.1
20 | CN(C)c1ccc2c(Oc3ccc(NC(=O)NCc4nccs4)cc3)ncnc2c1 [Compound 101] | 0.02 to 0.1 | 100 to 1000 | 0.1 to 1
21 | C[C@@H]1CN(c2ccc3c(Oc4ccc(NC(=O)NCc5ccc(C(F)(F)F)nc5)cc4)ncnc3c2)C[C@H](C)N1 [Compound 34, 1-(4-((7-(3,5-Dimethylpiperazin-1-yl)quinazolin-4-yl)oxy)phenyl)-3-((6-(trifluoromethyl)pyridin-3-yl)methyl)urea] | < 0.02 | 100 to 1000 | < 0.02
22 | CN(C)c1ccc2c(Oc3ccc(NC(=O)Nc4cccc(F)c4)cc3)ncnc2c1 [Compound 18] | < 0.02 | 100 to 1000 | 0.02 to 0.1
23 | COc1cc(Oc2ncnc3cc(N(C)C)ccc23)ccc1NC(=O)NCc1ccc(C(F)(F)F)nc1 [Compound 42] | < 0.02 | 100 to 1000 | 0.02 to 0.1
24 | CN(C)c1ccc2c(Oc3ccc(NC(=O)Nc4ccc(F)cc4)cc3)ncnc2c1 [Compound 106] | < 0.02 | 100 to 1000 | > 1
25 | CN(C)c1ccc2c(Oc3ccc(NC(=O)NCc4ccc(C(F)(F)F)nc4)c(Cl)c3)ncnc2c1 [Compound 33] | 0.02 to 0.1 | 100 to 1000 | 0.1 to 1
26 | CN1CCN(c2ccc3c(Oc4ccc(NC(=O)Nc5ccccc5)cc4)ncnc3c2)CC1 [Compound 3] | 0.02 to 0.1 | 20 to 100 | 0.02 to 0.1
27 | COC[C@H]1CCCN1c1ccc2c(Oc3ccc(NC(=O)Nc4ccccc4)cc3)ncnc2c1 [Compound 10] | 0.02 to 0.1 | 100 to 1000 | 0.1 to 1
28 | O=C(NCc1ccc(C(F)(F)F)nc1)Nc1ccc(Oc2ncnc3cc(N4CCOCC4)ccc23)cc1 [Compound 99] | < 0.02 | 20 to 100 | 0.02 to 0.1
29 | COC1CCN(c2ccc3c(Oc4ccc(NC(=O)Nc5ccccc5)cc4)ncnc3c2)CC1 [Compound 2] | 0.02 to 0.1 | 20 to 100 | 0.02 to 0.1
30 | COc1cc2nccc(Oc3ccc(NC(=O)NCc4ccc(C(F)(F)F)nc4)cc3)c2cc1OC [Compound 26] | 0.02 to 0.1 | 100 to 1000 | 0.02 to 0.1
31 | COc1ccc(CNC(=O)Nc2ccc(Oc3ncnc4cc(N(C)C)ccc34)cc2)cc1 [Compound 59] | < 0.02 | 20 to 100 | 0.02 to 0.1
32 | CN(C)c1ccc2c(Oc3ccc(NC(=O)NCCc4ccccc4)cc3)ncnc2c1 [Compound 58] | < 0.02 | 100 to 1000 | 0.02 to 0.1
33 | CN(CCO)c1ccc2c(Oc3ccc(NC(=O)NCc4ccc(C(F)(F)F)nc4)cc3)ncnc2c1 [Compound 40] | 0.02 to 0.1 | 100 to 1000 | 0.02 to 0.1
34 | CN(C)C1CCN(c2ccc3c(Oc4ccc(NC(=O)NCc5ccc(C(F)(F)F)nc5)cc4)ncnc3c2)CC1 [Compound 23] | 0.02 to 0.1 | 20 to 100 | 0.02 to 0.1
35 | CN(C)c1ccc2c(Oc3ccc(NC(=O)Nc4ccc(Cl)cc4)cc3)ncnc2c1 [Compound 19] | < 0.02 | 20 to 100 | < 0.02
